Measurements as given in patent US12479821B2 (MBD CO., LTD., priority 2019, dated 2025).
Like-named read-outs stand apart in the source and are kept apart here.

Biological target: T1, CYP4A (Homo sapiens, UniProt Q02928)
T1 construct: host or cells: bactosome, i.e. bacterial membrane preparation (own knowledge of the term)
T1 sequence (Q02928 5-519): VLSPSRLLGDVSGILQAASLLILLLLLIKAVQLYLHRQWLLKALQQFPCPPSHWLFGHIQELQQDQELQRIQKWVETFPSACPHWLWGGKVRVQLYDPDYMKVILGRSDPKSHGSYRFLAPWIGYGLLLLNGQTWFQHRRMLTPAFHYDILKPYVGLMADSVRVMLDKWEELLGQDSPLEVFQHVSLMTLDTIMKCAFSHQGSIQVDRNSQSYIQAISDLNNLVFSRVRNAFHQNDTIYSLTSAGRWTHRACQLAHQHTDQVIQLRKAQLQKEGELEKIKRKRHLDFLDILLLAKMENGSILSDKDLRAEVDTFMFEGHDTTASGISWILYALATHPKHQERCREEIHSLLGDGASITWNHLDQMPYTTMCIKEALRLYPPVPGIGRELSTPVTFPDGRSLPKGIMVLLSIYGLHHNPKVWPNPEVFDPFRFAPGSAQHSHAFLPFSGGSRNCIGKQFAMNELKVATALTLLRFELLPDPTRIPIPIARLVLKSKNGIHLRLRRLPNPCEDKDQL
Test: CYP4A enzyme assay (Luciferin-ME luminescence, CYP4A bactosome)
Assay type: biochemical
Conditions: compound concentration 5 μM
Summary of the method: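 CYP4A bactosome preincubated 15 min at room temperature with compound (5 μM) in 100 mM KPO4, 0.1% BSA, 1 mM DTT. Luciferin-ME (5 mM) plus NADPH regeneration system added, 30 min at room temperature, then detection reagent for 15 min. Inhibition derived from luminescence versus controls.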

[1] = 75% or more, read-out: % Inhibition 75% or more

| inhibition at 5 µM [1] | SMILES | other results |
| --- | --- | --- |
| ≥ 75% | COc1ccc(S(=O)(=O)N2CCCC(C(=O)N3CCN(c4ccnc5cc(F)ccc45)CC3)C2)cc1 (stereo not shown) [Formula 53, (4-(7-fluoroquinolin-4-yl)piperazin-1-yl) (1-(4-methoxyphenylsulfonyl)piperidin-3-yl) methanone] |  |
| ≥ 75% | CC(=O)Nc1ccc(S(=O)(=O)N2CCCC(C(=O)N3CCN(c4cc(C)nc5ccccc45)CC3)C2)cc1 (stereo not shown) [Formula 15, N-(4-(3-(1-(2-methylquinolin-4-yl)piperazine-4-carbonyl)piperidin-1-ylsulfonyl)phenyl) acetamide] |  |
|  | O=C([C@H]1CCCN(S(=O)(=O)c2ccc(O)cc2)C1)N1CCN(c2cc(C(F)(F)F)nc3ccccc23)CC1 [Formula 70, (S)-(1-(4-hydroxyphenylsulfonyl)piperidin-3-yl) (4-(2-(trifluoromethyl)quinolin-4-yl)piperazin-1-yl) methanone] | inhibition at 5 µM (25%-50%, read-out: % Inhibition 25%-50%): 25 to 50% |
|  | O=C(C1CCCN(S(=O)(=O)c2ccccc2)C1)N1CCN(c2ccnc3cc(Cl)ccc23)CC1 (stereo not shown) [Formula 1, (4-(7-chloroquinolin-4-yl)piperazin-1-yl) (1-(phenylsulfonyl)piperidin-3-yl) methanone] | inhibition at 5 µM ('50%-75%', read-out: % Inhibition 50%-75%): 50 to 75% |
